# From ChEMBL document CHEMBL1201862, “PubChem BioAssay data set” (2004)
# Calls of active or inactive are those of the source.
# Key:
# [1] = molecular target: T1, Acyl-homoserine lactone acylase PvdQ (Pseudomonas aeruginosa (strain LESB58), UniProt Q9I194); test: PvdQ acylase enzyme activity blockers – biochemical, fluorescence, plate reader and imaging, cherry-picks, dose response (AID 493231)
# T1 sequence (Q9I194 whole entry): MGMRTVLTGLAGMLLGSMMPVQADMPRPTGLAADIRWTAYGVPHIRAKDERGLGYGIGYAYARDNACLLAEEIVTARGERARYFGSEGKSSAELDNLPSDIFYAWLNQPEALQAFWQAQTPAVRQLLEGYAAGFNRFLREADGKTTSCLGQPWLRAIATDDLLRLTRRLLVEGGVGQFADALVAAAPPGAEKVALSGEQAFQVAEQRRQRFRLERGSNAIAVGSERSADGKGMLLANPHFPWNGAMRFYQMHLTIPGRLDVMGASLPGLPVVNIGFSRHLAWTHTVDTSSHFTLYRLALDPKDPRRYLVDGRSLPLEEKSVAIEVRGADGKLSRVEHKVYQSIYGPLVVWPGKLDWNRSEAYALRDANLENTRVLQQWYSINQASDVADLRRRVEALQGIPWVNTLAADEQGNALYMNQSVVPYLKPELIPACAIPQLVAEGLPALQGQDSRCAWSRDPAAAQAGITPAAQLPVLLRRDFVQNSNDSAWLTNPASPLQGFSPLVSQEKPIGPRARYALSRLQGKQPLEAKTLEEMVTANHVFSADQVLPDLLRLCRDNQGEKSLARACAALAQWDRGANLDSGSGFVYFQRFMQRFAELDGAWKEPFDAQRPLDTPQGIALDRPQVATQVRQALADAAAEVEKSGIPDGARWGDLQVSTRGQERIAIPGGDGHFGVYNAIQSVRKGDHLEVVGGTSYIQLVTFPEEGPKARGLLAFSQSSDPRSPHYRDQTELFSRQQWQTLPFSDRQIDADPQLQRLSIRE
# [2] = molecular target: Dual specificity tyrosine-phosphorylation-regulated kinase 1A (Rattus norvegicus, UniProt Q63470); type: biochemical, Homo sapiens
# Fatty acid synthase = Fatty acid synthase (Homo sapiens, UniProt P49327); test: inhibition of human FAS-TE enzyme activity – biochemical, kinetic fluorescence intensity, dose response (AID 624326); type: functional;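 also: rate of fluorescence rise from hydrolysis of a fluorogenic O-methyl fluorescein ester substrate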
# [3] = non-specific 3'UTR reporter inhibition in Clone20-Shn3RL – cell-based, Renilla luciferase, cherry-picked, counter-screen for Shn3 inhibitor project, dose response (AID 624133); type: functional
# [4] = reduction of Shn3 3'UTR-driven luciferase in osteoblasts – cell-based, Clone20 osteoblasts, firefly luciferase, cherry-picked, dose response (AID 624132); type: functional;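 also: firefly luciferase luminescence from reporter carrying the Shn3 3'UTR in osteoblasts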
# Vero [5] = test: cells; type: functional; conditions: Chlorocebus sabaeus
# Vero [6] = test: mammalian cell viability reduction – secondary assay, cytotoxicity control for West Nile virus antiviral project, dose response (AID 1650); type: functional; conditions: Chlorocebus sabaeus
# [7] = Trypanosoma cruzi growth suppression in host cells – NIH3T3 host cells, beta-gal luminescence, confirmation (AID 2044); type: functional, cell-based;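 also: intracellular parasites grown in NIH/3T3 mouse fibroblasts as host cells; luminescent beta-galactosidase reporter signal from transgenic T. cruzi replicating inside host cells; inhibitors lower the luminescence signal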
# Paired box protein Pax-8 = Paired box protein Pax-8 (Homo sapiens, UniProt Q06710); test: PAX8 transcriptional activity inhibition in RMG-I – RMG-I cells, luciferase, cherry-pick, dose response (AID 687027); type: functional, cell-based;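 also: luciferase reporter driven by Pax8 target thyroperoxidase promoter measured by SteadyGlo luminescence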
# [8] = general cell-killing toxicity readout – plate reader, dry powder samples, cytotoxicity control for PAX8 inhibitor project, dose response (AID 743021); type: functional, cell-based
# [9] = NIH3T3 cell viability loss – ATP luminescence, mouse fibroblasts, counter-screen, dose response (AID 2010); type: functional, cell-based;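 also: cells exposed to compound for about 90 hours before reading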
# [10] = molecular target: T2, Nuclear receptor subfamily 0 group B member 1 (Homo sapiens, UniProt P51843); type: functional, cell-based;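 also: HEK293T cells transfected with SF-1 and DAX-1 plus StAR promoter luciferase reporter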
# T2 sequence (P51843 whole entry): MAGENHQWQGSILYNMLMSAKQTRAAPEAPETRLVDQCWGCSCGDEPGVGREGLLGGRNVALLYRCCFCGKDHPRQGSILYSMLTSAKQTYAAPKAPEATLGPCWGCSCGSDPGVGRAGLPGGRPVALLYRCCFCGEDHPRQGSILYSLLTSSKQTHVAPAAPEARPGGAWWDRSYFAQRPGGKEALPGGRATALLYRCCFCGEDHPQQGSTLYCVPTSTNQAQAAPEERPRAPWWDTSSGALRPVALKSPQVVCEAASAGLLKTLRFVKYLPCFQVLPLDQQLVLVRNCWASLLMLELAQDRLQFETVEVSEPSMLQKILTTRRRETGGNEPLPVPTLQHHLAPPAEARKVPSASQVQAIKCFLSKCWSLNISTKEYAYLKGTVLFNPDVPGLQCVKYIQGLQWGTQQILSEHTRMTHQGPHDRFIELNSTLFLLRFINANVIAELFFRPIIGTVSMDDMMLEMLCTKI
# cells = type: functional, cell-based
# [11] = toxicity to human hepatoma HepG2 cells – cell-based, cherry-picked samples, cytotoxicity control, dose response (AID 1159577); type: functional
# [12] = P. falciparum Dd2 growth inhibitors, dose response, SYBR Green, cherry-picked samples (AID 1159567); type: functional, cell-based
# [13] = A2780 cell killing – plate reader, dry powder samples, cytotoxicity control, dose response (AID 743046); type: functional, cell-based
# [14] = OVCAR-3 cell viability loss – plate reader, dry powder samples, PAX8 inhibitor project, dose response (AID 743044); type: functional, cell-based
# [15] = IGROV1 cell killing – plate reader, dry powder samples, PAX8 inhibitor project, dose response (AID 743043); type: functional, cell-based; conditions: IGROV-1
# [16] = OVCAR8 cell viability loss – plate reader, dry powder samples, PAX8 project, dose response (AID 743197); type: functional, cell-based; conditions: OVCAR-8
# [17] = molecular target: 5-hydroxytryptamine receptor 2A (Mus musculus, UniProt P35363); type: functional, cell-based;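 also: CHO-K1 cells with tagged receptor and beta-arrestin; agonist potency measured as compound-induced activation of the receptor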
# Mu-type opioid receptor = Mu-type opioid receptor (Homo sapiens, UniProt P35372); type: functional, cell-based;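 also: U2OS cells with beta-arrestin recruitment to OPRM1 by beta-gal complementation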
# [18] = molecular target: T3, Histone-lysine N-methyltransferase NSD2 (Homo sapiens, UniProt O96028); type: biochemical
# T3 sequence (O96028 whole entry): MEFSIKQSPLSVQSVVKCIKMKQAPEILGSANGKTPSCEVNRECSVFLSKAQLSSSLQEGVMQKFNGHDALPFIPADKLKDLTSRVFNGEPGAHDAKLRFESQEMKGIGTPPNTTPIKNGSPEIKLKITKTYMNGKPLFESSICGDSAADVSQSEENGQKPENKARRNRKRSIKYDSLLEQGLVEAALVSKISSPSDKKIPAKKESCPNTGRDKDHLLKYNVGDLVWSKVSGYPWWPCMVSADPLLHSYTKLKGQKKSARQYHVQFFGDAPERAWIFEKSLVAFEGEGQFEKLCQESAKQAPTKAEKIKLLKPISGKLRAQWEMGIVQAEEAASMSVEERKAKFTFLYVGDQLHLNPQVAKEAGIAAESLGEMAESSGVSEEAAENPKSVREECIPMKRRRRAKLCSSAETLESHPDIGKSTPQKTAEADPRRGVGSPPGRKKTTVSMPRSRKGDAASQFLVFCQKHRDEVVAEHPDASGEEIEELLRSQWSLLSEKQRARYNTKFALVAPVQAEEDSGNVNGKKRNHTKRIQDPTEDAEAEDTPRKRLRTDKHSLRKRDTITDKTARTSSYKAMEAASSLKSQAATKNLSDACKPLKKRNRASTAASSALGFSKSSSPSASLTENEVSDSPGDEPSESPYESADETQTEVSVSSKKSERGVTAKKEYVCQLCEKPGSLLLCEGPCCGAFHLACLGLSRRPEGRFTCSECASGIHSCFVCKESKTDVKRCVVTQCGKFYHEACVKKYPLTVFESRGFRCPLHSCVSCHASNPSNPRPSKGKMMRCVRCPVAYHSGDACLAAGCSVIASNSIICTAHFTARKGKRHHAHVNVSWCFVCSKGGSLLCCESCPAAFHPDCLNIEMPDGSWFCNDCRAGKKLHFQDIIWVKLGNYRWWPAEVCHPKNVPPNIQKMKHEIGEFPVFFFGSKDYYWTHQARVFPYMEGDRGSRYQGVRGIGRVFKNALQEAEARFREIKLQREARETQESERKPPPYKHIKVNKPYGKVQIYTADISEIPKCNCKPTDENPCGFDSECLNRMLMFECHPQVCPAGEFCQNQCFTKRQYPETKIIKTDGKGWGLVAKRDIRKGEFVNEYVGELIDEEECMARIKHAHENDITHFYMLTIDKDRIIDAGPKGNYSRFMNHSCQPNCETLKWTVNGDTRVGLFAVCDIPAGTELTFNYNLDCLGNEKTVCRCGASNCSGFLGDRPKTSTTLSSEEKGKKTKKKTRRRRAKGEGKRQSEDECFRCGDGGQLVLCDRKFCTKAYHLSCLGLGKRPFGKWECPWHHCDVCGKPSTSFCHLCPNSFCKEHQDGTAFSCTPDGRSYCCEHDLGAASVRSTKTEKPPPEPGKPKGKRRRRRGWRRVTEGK
# Large T antigen = Large T antigen (Simian virus 40, UniProt P03070); type: functional, Betapolyomavirus macacae;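 also: Confirmatory-stage PubChem screen for compounds that inhibit SV40 T antigen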
# [19] = molecular target: Induced myeloid leukemia cell differentiation protein Mcl-1 (Homo sapiens, UniProt Q07820); type: functional
# Prothrombin = Prothrombin (Homo sapiens, UniProt P00734); test: Thrombin 1536 HTS Dose Response Confirmation. [Related pubchem assays: 1046 (Thrombin 1536 HTS; hits were confirmed in this assay)]; type: functional
# Cytochrome P450 3A4 = Cytochrome P450 3A4 (Homo sapiens, UniProt P08684); conditions: Potency;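 also: confirmatory qHTS run detecting inhibitors and substrates of CYP3A4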
# Estrogen receptor beta [20] = molecular target: T4, Estrogen receptor beta (Homo sapiens, UniProt Q92731);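 also: recombinant ER-beta bound to coactivator SRC1 peptide in presence of estradiol agonist; inhibitors block coactivator peptide binding and lower the FRET signal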
# Estrogen receptor beta [21] = molecular target: T4, Estrogen receptor beta; test: blockers of SRC-3 recruitment to ERβ – biochemical, ELISA, streptavidin-HRP readout, orthogonal assay, confirmation (AID 1060)
# Paired box protein Pax-8, sequence (Q06710 whole entry): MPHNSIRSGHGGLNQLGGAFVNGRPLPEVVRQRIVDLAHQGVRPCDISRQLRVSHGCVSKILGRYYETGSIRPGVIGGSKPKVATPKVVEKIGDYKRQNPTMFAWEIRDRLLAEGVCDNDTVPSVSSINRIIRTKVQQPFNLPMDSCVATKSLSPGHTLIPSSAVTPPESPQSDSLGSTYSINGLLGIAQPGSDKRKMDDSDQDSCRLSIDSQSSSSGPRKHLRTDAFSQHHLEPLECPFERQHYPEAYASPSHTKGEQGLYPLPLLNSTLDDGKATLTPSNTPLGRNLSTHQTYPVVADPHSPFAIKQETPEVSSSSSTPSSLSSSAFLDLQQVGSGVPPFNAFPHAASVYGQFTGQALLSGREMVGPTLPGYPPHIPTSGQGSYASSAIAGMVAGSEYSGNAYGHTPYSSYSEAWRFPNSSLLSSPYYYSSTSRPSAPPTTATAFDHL
# 5-hydroxytryptamine receptor 2A, sequence (P35363 whole entry): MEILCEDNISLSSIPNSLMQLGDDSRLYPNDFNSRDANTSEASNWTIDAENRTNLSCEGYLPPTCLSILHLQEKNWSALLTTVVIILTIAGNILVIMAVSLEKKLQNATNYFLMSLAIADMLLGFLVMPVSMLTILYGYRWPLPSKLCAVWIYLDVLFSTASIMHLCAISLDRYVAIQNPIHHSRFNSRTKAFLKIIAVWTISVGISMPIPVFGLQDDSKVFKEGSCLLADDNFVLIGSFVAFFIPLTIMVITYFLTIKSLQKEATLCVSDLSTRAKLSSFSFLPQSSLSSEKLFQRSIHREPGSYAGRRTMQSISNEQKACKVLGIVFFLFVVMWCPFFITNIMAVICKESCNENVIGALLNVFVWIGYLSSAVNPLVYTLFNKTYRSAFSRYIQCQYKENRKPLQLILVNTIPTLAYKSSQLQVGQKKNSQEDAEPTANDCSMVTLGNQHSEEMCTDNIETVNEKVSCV
# Mu-type opioid receptor, sequence (P35372 whole entry): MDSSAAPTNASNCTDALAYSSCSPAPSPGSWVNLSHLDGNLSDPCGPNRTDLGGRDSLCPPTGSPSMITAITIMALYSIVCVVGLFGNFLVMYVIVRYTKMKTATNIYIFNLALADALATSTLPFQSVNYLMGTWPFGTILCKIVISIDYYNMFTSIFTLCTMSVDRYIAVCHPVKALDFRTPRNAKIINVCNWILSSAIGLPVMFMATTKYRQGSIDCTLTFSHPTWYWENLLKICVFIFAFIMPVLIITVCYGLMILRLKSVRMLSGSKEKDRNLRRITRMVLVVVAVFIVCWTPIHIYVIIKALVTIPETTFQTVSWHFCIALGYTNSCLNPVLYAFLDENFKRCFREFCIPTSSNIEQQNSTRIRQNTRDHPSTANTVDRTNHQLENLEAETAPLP
# Cytochrome P450 3A4, sequence (P08684 whole entry): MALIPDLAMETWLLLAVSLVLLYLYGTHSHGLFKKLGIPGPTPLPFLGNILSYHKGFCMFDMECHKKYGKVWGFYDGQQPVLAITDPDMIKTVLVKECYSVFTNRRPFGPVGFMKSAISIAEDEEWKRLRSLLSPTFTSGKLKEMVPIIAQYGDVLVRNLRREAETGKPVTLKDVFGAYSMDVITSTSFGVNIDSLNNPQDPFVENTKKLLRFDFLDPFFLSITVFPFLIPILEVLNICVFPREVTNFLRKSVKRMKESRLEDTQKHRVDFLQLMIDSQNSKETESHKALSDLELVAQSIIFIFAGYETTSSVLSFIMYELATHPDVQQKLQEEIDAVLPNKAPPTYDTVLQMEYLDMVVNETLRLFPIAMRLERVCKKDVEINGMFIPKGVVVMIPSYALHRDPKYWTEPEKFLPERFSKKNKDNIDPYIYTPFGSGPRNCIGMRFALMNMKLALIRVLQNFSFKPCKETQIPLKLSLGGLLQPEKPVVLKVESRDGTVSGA
# T4 sequence (Q92731 whole entry): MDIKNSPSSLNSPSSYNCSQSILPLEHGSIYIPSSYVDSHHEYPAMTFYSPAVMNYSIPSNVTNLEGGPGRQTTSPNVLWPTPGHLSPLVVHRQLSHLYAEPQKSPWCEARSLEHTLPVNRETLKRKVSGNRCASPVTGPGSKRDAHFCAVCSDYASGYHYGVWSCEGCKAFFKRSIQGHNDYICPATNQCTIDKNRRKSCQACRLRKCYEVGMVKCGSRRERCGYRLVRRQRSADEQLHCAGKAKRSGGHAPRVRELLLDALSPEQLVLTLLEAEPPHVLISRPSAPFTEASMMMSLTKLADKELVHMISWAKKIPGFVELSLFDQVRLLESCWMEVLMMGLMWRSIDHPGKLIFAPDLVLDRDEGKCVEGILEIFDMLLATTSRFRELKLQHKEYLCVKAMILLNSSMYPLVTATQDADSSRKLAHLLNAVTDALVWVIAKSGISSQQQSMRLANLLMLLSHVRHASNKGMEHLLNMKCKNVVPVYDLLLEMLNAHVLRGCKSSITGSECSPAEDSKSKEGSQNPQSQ
# Large T antigen, sequence (P03070 whole entry): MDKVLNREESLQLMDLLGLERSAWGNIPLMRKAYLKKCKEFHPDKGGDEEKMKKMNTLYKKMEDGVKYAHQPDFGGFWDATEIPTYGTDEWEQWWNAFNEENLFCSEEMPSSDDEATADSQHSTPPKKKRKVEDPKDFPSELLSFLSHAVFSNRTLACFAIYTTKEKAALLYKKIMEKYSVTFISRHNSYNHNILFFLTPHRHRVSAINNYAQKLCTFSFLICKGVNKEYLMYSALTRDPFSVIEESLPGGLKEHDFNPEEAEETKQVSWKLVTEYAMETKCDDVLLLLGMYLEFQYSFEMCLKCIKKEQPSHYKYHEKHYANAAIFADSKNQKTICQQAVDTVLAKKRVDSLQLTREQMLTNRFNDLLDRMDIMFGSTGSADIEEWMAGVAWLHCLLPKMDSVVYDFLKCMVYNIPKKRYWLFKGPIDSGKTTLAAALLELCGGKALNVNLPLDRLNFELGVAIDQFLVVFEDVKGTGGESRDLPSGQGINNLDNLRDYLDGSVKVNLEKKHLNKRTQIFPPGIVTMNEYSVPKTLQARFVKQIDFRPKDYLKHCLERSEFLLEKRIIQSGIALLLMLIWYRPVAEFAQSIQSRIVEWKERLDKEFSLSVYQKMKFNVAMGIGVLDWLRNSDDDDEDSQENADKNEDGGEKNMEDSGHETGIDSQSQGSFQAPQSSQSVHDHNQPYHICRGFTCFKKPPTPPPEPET
# Induced myeloid leukemia cell differentiation protein Mcl-1, sequence (Q07820 whole entry): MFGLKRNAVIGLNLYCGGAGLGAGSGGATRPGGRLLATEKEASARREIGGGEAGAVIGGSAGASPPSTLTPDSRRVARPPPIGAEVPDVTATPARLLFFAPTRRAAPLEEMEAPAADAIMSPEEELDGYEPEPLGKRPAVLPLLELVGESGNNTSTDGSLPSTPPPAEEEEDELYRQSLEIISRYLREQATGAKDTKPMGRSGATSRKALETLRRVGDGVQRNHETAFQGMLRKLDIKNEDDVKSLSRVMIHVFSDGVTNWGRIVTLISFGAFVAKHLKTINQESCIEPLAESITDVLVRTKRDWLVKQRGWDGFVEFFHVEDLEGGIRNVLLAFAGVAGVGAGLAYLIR
smiles,measurement,setting,value
c1cnc2ccc(-c3ccc4ncccc4c3)cc2c1,AC50,[1],10.7 µM (active)
same,AC50,[2],0.189 µM (active)
O=C(CC(c1ccccc1)c1ccccc1)NCC(O)c1ccc([N+](=O)[O-])cc1 (stereo not given),IC50,Fatty acid synthase,13.5 µM (active)
Cc1ccc(Cn2ccc(NC(=O)c3nn(C)cc3[N+](=O)[O-])n2)cc1,AC50,[3],27.3 µM (active)
same,AC50,[4],4.09 µM (active)
same,CC50,Vero [5],13.8 µM (active)
same,CC50,Vero [6],11.6 µM (active)
COc1ccc(/C=C2\CN(Cc3ccccc3)C/C(=C\c3ccc(OC)cc3OC)C2=O)c(OC)c1,EC50,[7],1.83 µM (active)
same,AC50,Paired box protein Pax-8,10.4 µM (active)
same,AC50,[8],42.3 µM (active)
same,EC50,[9],9.01 µM (active)
OC[C@H]1O[C@H](c2nc(-c3nc(-c4cccs4)no3)cs2)C[C@@H]1O,IC50,[10],> 67.5 µM (inactive)
same,IC50,cells,> 67.5 µM (inactive)
COc1cccc(/C=C/C(=O)NNC(=O)c2ccccc2)c1OC,IC50,[10],> 67.6 µM (inactive)
same,IC50,cells,> 67.6 µM (inactive)
O=S(=O)(c1ccc(F)cc1)N1C[C@@H]2N[C@H](C1)[C@@H]2c1ccc(-c2ccc(F)cc2)cc1,AC50,[11],11 µM (active)
same,AC50,[12],7.37 µM (active)
COc1ccc(S(=O)(=O)Nc2ccc3c(c2)C(=O)N([C@H](C)CO)C[C@H](C)[C@@H](CN(C)S(=O)(=O)c2ccc(F)cc2)OCCCC[C@H](C)O3)cc1,AC50,[13],34.7 µM (active)
same,AC50,[14],12.5 µM (active)
same,AC50,Paired box protein Pax-8,3.96 µM (active)
same,AC50,[15],37.1 µM (active)
same,AC50,[16],22.9 µM (active)
CC(C)=CCC/C(C)=C/CN1C(=O)N(c2ccc(F)cc2)[C@H]2C[C@@H](c3ccccc3)[C@@H](C)[C@@H](C(=O)N3CCOCC3)C[C@H]21,AC50,Paired box protein Pax-8,2.66 µM (active)
same,AC50,[8],42 µM (active)
O=C(c1ccc(C[S+]([O-])c2ccccc2Cl)o1)N1CCN(C2CCCCC2)CC1 (stereo not given),IC50,[10],> 67.5 µM (inactive)
same,IC50,cells,> 67.5 µM (inactive)
Clc1ccccc1CN1CCN(c2ccccc2)CC1,EC50,[17],0.553 µM (active)
same,EC50,Mu-type opioid receptor,92.5 µM (inactive)
C[C@@H]1CCCCO[C@H](CN(C)S(=O)(=O)c2ccc(Cl)cc2)[C@@H](C)CN([C@@H](C)CO)C(=O)c2cc(NS(=O)(=O)c3ccc(F)cc3)ccc2O1,AC50,[13],11.5 µM (active)
same,AC50,[14],39 µM (active)
same,AC50,Paired box protein Pax-8,7.67 µM (active)
same,AC50,[16],62.8 µM (active)
Nc1nc(CN2CCN(c3ccccn3)CC2)nc(Nc2ccc(Cl)cc2)n1,EC50,[17],1.51 µM (active)
same,EC50,Mu-type opioid receptor,92.5 µM (inactive)
Cc1ccc(C2=NC(=O)/C(=C/c3cc(O)c(O)c(Br)c3)S2)cc1,AC50,[18],3.45 µM (active)
same,IC50,Large T antigen,4.91 µM (active)
same,IC50,[19],0.767 µM (active)
COc1ccc(S(=O)(=O)N2CCOCC2)cc1NC(=O)COC(=O)c1ccc(C)s1,IC50,Prothrombin,0.408 µM (active)
CC(Nc1nc(O)c2c(ncn2Cc2ccccc2)n1)C(=O)O (stereo not given),IC50,Prothrombin,> 50 µM (not active)
Cc1cc(-c2ccc(/N=N/c3cc(S(=O)(=O)O)c4ccccc4c3N)c(C)c2)ccc1/N=N/c1cc(S(=O)(=O)O)c2ccccc2c1N,AC50,Cytochrome P450 3A4,25.1 µM (inconclusive)
COC(=O)NC(c1cccc(C)c1)C(C(C)=O)C(=O)OC (stereo not given),AC50,Cytochrome P450 3A4,7.94 µM (inconclusive)
Nc1n[nH]c(N2CCN(Cc3ccccc3)CC2)n1,EC50,[17],5.59 µM (active)
same,EC50,Mu-type opioid receptor,92.5 µM (inactive)
O=C(Nc1cc(F)ccc1F)N1CCCCN2[C@@H](CO)[C@@H](c3ccc(-c4ccccc4)cc3)[C@@H]2C1,AC50,[11],9.99 µM (active)
same,AC50,[12],2.56 µM (active)
COc1ccc(C#Cc2ccc([C@@H]3[C@H](CO)N4CCCCN(Cc5ccccc5F)C[C@@H]34)cc2)cc1,AC50,[11],9.38 µM (active)
same,AC50,[12],0.756 µM (active)
Cc1cc2n(c1)CCn1c(C)ccc1-2,IC50,Estrogen receptor beta [20],3.91 µM (active)
same,IC50,Estrogen receptor beta [21],3.06 µM (not active)
COc1ccc(N(C(=O)c2ccco2)S(=O)(=O)c2cccc([N+](=O)[O-])c2)cc1,IC50,Prothrombin,2.18 µM (active)
